Laboratory results as given in patent US20210045385A1, “PYRIDAZINONE-SUBSTITUTED KETOXIMES AS HERBICIDES” (FMC Corporation, priority 2018, published 2021).

Legend:
Type in all cases: in vivo
[1] = test system: duck salad (Heteranthera limosa); experiment: Test D flooded paddy test, visual plant response rating; conditions: 250 g ai/ha, scale 0 to 100 (0 no effect, 100 complete control), 13 to 15 d
Procedure: (§1) Plant species in the flooded paddy test selected from rice (Oryza sativa), sedge umbrella (small-flower umbrella sedge, Cyperus difformis) duck salad (Heteranthera limosa), and barnyardgrass (Echinochloa crus-galli) were grown to the 2-leaf stage for testing. At time of treatment, test pots were flooded to 3 cm above the soil surface, treated by application of test compounds directly to the paddy water, and then maintained at that water depth for the duration of the test. Treated plants and controls were maintained in a greenhouse for 13 to 15 d, after which time all species were compared to controls and visually evaluated. Plant response ratings, summarized in Table D, are based on a scale of 0 to 100 where 0 is no effect and 100 is complete control. A dash (-) response means no test result.

rice (Oryza sativa) = experiment: as above; conditions: 250 g ai/ha, scale 0 to 100 (0 no effect, 100 complete control), 13 to 15 d
Procedure: as §1

[2] = test system: barnyardgrass (Echinochloa crus-galli); experiment: as above; conditions: 250 g ai/ha, scale 0 to 100 (0 no effect, 100 complete control), 13 to 15 d
Procedure: as §1

[3] = test system: sedge umbrella (small-flower umbrella sedge, Cyperus difformis); experiment: as above; conditions: 250 g ai/ha, scale 0 to 100 (0 no effect, 100 complete control), 13 to 15 d
Procedure: as §1

[4] = test system: wheat (Triticum aestivum); experiment: Test C postemergence, visual plant response rating; conditions: Test C, postemergence
Source text: (§2) Seeds of plant species selected from barnyardgrass (Echinochloa crus-galli), kochia (Bassia scoparia), ragweed (common ragweed, Ambrosia artemisiifolia), Italian ryegrass (Lolium mutiflorum), foxtail, giant (giant foxtail, Setaria faberi), foxtail, green (green foxtail, Setaria viridis), and pigweed (Amaranthus retroflexus) were planted into a blend of loam soil and sand and treated preemergence with a directed soil spray using test chemicals formulated in anon-phytotoxic solvent mixture which included a surfactant.
(§3) At the same time, plants selected from these weed species and also wheat (Triticum aestivum), corn (Zea mays), blackgrass (Alopecurus myosuroides), and galium (catchweed bedstraw, Galium aparine) were planted in pots containing the same blend of loam soil and sand and treated with post emergence applications of test chemicals formulated in the same manner. Plants ranged in height from 2 to 10 cm and were in the one- to two-leaf stage for the postemergence treatment. Treated plants and untreated controls were maintained in a greenhouse for approximately 10 d, after which time all treated plants were compared to untreated controls and visually evaluated for injury. Plant response ratings, summarized in Table C, are based on a 0 to 100 scale where 0 is no effect and 100 is complete control. A dash (-)response means no test result.

[5] = test system: galium (catchweed bedstraw, Galium aparine); experiment: Test C postemergence, visual plant response rating; conditions: Test C, postemergence
Source text: as §2, §3

kochia (Bassia scoparia) [6] = experiment: Test C postemergence, visual plant response rating; conditions: Test C, postemergence
Source text: as §2, §3

[7] = test system: blackgrass (Alopecurus myosuroides); experiment: Test C postemergence, visual plant response rating; conditions: Test C, postemergence
Source text: as §2, §3

[8] = test system: pigweed (Amaranthus retroflexus); experiment: Test C postemergence, visual plant response rating; conditions: Test C, postemergence
Source text: as §2, §3

[9] = test system: ragweed (common ragweed, Ambrosia artemisiifolia); experiment: Test C postemergence, visual plant response rating; conditions: Test C, postemergence
Source text: as §2, §3

[10] = test system: barnyardgrass (Echinochloa crus-galli); experiment: Test C postemergence, visual plant response rating; conditions: Test C, postemergence
Source text: as §2, §3

corn (Zea mays) = experiment: Test C postemergence, visual plant response rating; conditions: Test C, postemergence
Source text: as §2, §3

[11] = test system: Italian ryegrass (Lolium mutiflorum); experiment: Test C postemergence, visual plant response rating; conditions: Test C, postemergence
Source text: as §2, §3

[12] = test system: foxtail, giant (giant foxtail, Setaria faberi); experiment: Test C postemergence, visual plant response rating; conditions: Test C, postemergence
Source text: as §2, §3

kochia (Bassia scoparia) [13] = experiment: Test C preemergence, visual plant response rating
Source text: as §2, §3

[14] = test system: pigweed (Amaranthus retroflexus); experiment: Test C preemergence, visual plant response rating
Source text: as §2, §3

[15] = test system: barnyardgrass (Echinochloa crus-galli); experiment: Test C preemergence, visual plant response rating
Source text: as §2, §3

[16] = test system: Italian ryegrass (Lolium mutiflorum); experiment: Test C preemergence, visual plant response rating
Source text: as §2, §3

[17] = test system: foxtail, giant (giant foxtail, Setaria faberi); experiment: Test C preemergence, visual plant response rating
Source text: as §2, §3

For `C#CCON=C(c1c(O)c(OC)nn(C)c1=O)c1cccc2ccccc12` (mixture of isomers) [Compound 168], the “Plant response rating, Ducksalad (Flood)” value [1] was 0, the “Plant response rating, Rice (Flood)” value (rice (Oryza sativa)) was 0 and the “Plant response rating, Barnyardgrass (Flood)” value [2] was 0. The “Plant response rating, Sedge, Umbrella (Flood)” value [3] was 0, the “Wheat plant response rating (0 to 100 scale)” value ([4]; 125 g ai/ha) was 0 and the “Wheat plant response rating (0 to 100 scale)” value ([4]; 500 g ai/ha) was 30. The “Galium plant response rating (0 to 100 scale)” value ([5]; 125 g ai/ha) was 70, the “Galium plant response rating (0 to 100 scale)” value ([5]; 500 g ai/ha) was 90 and the “Kochia plant response rating (0 to 100 scale)” value (“Kochia plant response rating” below) (kochia (Bassia scoparia) [6]; 125 g ai/ha) was 70. For the same compound, the “Kochia plant response rating” value (kochia (Bassia scoparia) [6]; 500 g ai/ha) was 80, the “Blackgrass plant response rating (0 to 100 scale)” value ([7]; 125 g ai/ha) was 20 and the “Blackgrass plant response rating (0 to 100 scale)” value ([7]; 500 g ai/ha) was 80. The “Pigweed plant response rating (0 to 100 scale)” value (“Pigweed plant response rating” below) ([8]; 125 g ai/ha) was 60, the “Pigweed plant response rating” value ([8]; 500 g ai/ha) was 100 and the “Ragweed plant response rating (0 to 100 scale)” value ([9]; 125 g ai/ha) was 60. For the same compound, the “Ragweed plant response rating (0 to 100 scale)” value ([9]; 500 g ai/ha) was 90, the “Barnyardgrass plant response rating (0 to 100 scale)” value (“Barnyardgrass plant response rating” for short) ([10]; 125 g ai/ha) was 40 and the “Barnyardgrass plant response rating” value ([10]; 500 g ai/ha) was 60. For the same compound, the “Corn plant response rating (0 to 100 scale)” value (corn (Zea mays); 125 g ai/ha) was 0, the “Corn plant response rating (0 to 100 scale)” value (corn (Zea mays); 500 g ai/ha) was 20 and the “Ryegrass, Italian plant response rating (0 to 100 scale)” value (“Ryegrass, Italian plant response rating” below) ([11]; 125 g ai/ha) was 40. The “Ryegrass, Italian plant response rating” value ([11]; 500 g ai/ha) was 90, the “Foxtail, Giant plant response rating (0 to 100 scale)” value (shortened to “Foxtail, Giant plant response rating”) ([12]; 125 g ai/ha) was 50 and the “Foxtail, Giant plant response rating” value ([12]; 500 g ai/ha) was 90. The “Kochia plant response rating” value (kochia (Bassia scoparia) [13]; 125 g ai/ha) was 0, the “Kochia plant response rating” value (kochia (Bassia scoparia) [13]; 500 g ai/ha) was 10 and the “Pigweed plant response rating” value ([14]; 125 g ai/ha) was 100. For the same compound, the “Pigweed plant response rating” value ([14]; 500 g ai/ha) was 100, the “Barnyardgrass plant response rating” value ([15]; 125 g ai/ha) was 60 and the “Barnyardgrass plant response rating” value ([15]; 500 g ai/ha) was 80. For the same compound, the “Ryegrass, Italian plant response rating” value ([16]; 125 g ai/ha) was 20, the “Ryegrass, Italian plant response rating” value ([16]; 500 g ai/ha) was 90 and the “Foxtail, Giant plant response rating” value ([17]; 125 g ai/ha) was 80. For the same compound, the “Foxtail, Giant plant response rating” value ([17]; 500 g ai/ha) was 100.
